This passage reports GI50 results from patent US20240246940A1, “HETEROARYL DERIVATIVE COMPOUND AND USE THEREOF” (VORONOI INC., priority 2021, published 2024).

For orientation: GI50 means the concentration giving 50% growth inhibition.

Bounds are passed on as bounds.

Experiment [1] concerns BT-474 cells (HER2 overexpressing cell line). As to the kind of experiment: BT-474 cell proliferation inhibitory activity (CellTiter-Glo, 120 hours). The class given is cell-based. To be noted: Homo sapiens. The method, then:
To evaluate the cell proliferation inhibitory activity of the compound according to the present invention on HER2 and EGFR kinases, the following method was performed using HER2 overexpressing cell lines (SK-BR-3, BT-474, and N-87) and EGFR expressing cell line (HaCaT).
McCOY'S 5A supplemented with 10% FBS was used for SK-BR-3 cells, RPMI-1640 medium supplemented with 20% FBS was used for BT-474 cancer cells, and RPMI-1640 medium supplemented with 10% FBS was used for N-87 cancer cells. DMEM supplemented with 10% FBS was used for HaCaT cells.
For SK-BR-3 cells, 5000 cells were aliquoted into each well of a white clear bottom 96 well plate (Corning) 48 hours before treatment with the compounds of Examples. For BT-474 cells, 5000 cells were aliquoted into each well of a white clear bottom 96 well plate (Corning) 48 hours before treatment with the compounds of Examples. For N-87 cells, 5000 cells were aliquoted into each well of a white clear bottom 96 well plate (Corning) 24 hours before treatment with the compounds of Examples. For HaCaT cells, 3000 cells were aliquoted into each well of a white clear bottom 96 well plate (Corning) 24 hours before treatment with the compounds of Examples. For SK-BR-3 cells and BT-474 cells, the compounds of Examples were diluted in dimethyl sulfoxide (three-fold dilution, a total of 11 concentrations) and injected each in an amount of 1 μl to a final concentration of 0.2 nM to 10 μM. For N-87 cells, the compounds of Examples were diluted in dimethyl sulfoxide (five-fold dilution, a total of 11 concentrations) and injected each in an amount of 0.5 μl to a final concentration of […] to 5 μM. For HaCaT cells, the compounds of Examples were diluted in dimethyl sulfoxide (three-fold dilution, a total of 11 concentrations) and injected each in an amount of 0.5 μl to a final concentration of 0.8 nM to 45 μM. For the measurement of living cells, the cells were stored at room temperature for 10 minutes using CellTiter-Glo cell viability reagent (Promega) after a certain period of time (SK-BR-3: 120 hours, BT-474: 120 hours, N-87: 72 hours, and HaCaT: 72 hours) post treatment with the compounds of Examples, and the luminescence intensity thereof was measured using a reader (SynergyNeo, Biotek). Each test was repeated three times.
The result values were calculated as a cell growth rate (%) compared to those of the control group. A graph was created using the GraphPad Prism version 5.0 program, and GI50 values were calculated.
A general note: In ATP-based viability assays light output follows the ATP content of the culture.

Experiment [2] deals with HaCaT cells (EGFR expressing cell line). As to the kind of experiment: HaCaT cell proliferation inhibitory activity (CellTiter-Glo, 72 hours). The class given is cell-based. To be noted: Homo sapiens. In short, it runs like this:
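Three independent repeats measured growth inhibition across 11 concentrations. The top final concentration was 10 μM for SK-BR-3 and BT-474, 5 μM for N-87 and 45 μM for HaCaT. Growth relative to control, read by luminescence, yielded GI50.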

For the compound `C=CC(=O)N1[C@@H]2CC[C@H]1C[C@H](Oc1cc3c(Nc4cc(-c5ccco5)ccc4OC)ncnc3cc1OC)C2` [Example 172, 1-((1R,3s,5S)-3-((4-((5-(furan-2-yl)-2-methoxyphenyl)amino)-7-methoxy-quinazolin-6-yl)oxy)-8-azabicyclo [3.2.1]octan-8-yl)prop-2-en-1-one], the GI50 in experiment [1] and in experiment [2] was ≤ 150 nM in each case.
Consider `C=CC(=O)N1CCC(Oc2cc3c(Nc4cc(-c5cccc(SC)c5)ccc4OC)ncnc3cc2OC)CC1` [Example 205, 1-(4-((7-methoxy-4-((4-methoxy-3′-(methylthio)-[1,1′-biphenyl]-3-yl)amino)quinazolin-6-yl)oxy)piperidin-1-yl)prop-2-en-1-one], for which the GI50 is 150 to 1000 nM in experiment [1] and > 1000 nM in experiment [2].
For `C=CC(=O)N1CCC2(CC(Oc3cc4c(Nc5cc(-c6ccco6)ccc5OC)ncnc4cc3OC)C2)C1` (centres unmarked) [Example 220, 1-(2-((4-((5-(furan-2-yl)-2-methoxyphenyl)amino)-7-methoxy-quinazolin-6-yl)oxy)-6-azaspiro[3.4]octan-6-yl)prop-2-en-1-one] the same measures were 150 to 1000 nM and 150 to 1000 nM.
Consider `COc1ccc(-c2ccco2)cc1Nc1ncnc2ccc(NC(=O)/C=C/CN(C)C)c(Cl)c12` [Example 321, (E)-N-(5-chloro-4-((5-(furan-2-yl)-2-methoxyphenyl)amino)quinazolin-6-yl)-4-(dimethylamino)but-2-enamide], for which the figures for the GI50 in experiment [1] and in experiment [2] were > 1000 nM and 150 to 1000 nM, respectively.
In the same order, the values of `C=CC(=O)N1CC[C@H](Oc2cc3c(Nc4cc(-c5ccco5)ccc4OC)ncnc3cc2OC)[C@@H](F)C1` [Example 174, 1-((3S,4S)-3-fluoro-4-((4-((5-(furan-2-yl)-2-methoxyphenyl)amino)-7-methoxy-quinazolin-6-yl)oxy)piperidin-1-yl)prop-2-en-1-one] are ≤ 150 nM and ≤ 150 nM.
For the compound `C=CC(=O)N1CCC(Oc2cc3c(Nc4cc(-c5ccc(F)c(OCC(F)(F)F)c5)ccc4OC)ncnc3cc2OC)CC1` [Example 214, 1-(4-((4-((4′-fluoro-4-methoxy-3′-(2,2,2-trifluoroethoxy)-[1,1′-biphenyl]-3-yl)amino)-7-methoxy-quinazolin-6-yl)oxy)piperidin-1-yl)prop-2-en-1-one], the results for the GI50 in experiment [1] and in experiment [2] were ≤ 150 nM and > 1000 nM, respectively.
In the same order, the values of `C=CC(=O)N1CCC(Oc2cc3c(Nc4cc(-c5ccc(F)c(C(F)F)c5)ccc4OC)ncnc3cc2OC)CC1` [Example 196, 1-(4-((4-((3′-(difluoromethyl)-4′-fluoro-4-methoxy-[1,1′-biphenyl]-3-yl)amino)-7-methoxy-quinazolin-6-yl)oxy)piperidin-1-yl)prop-2-en-1-one] are ≤ 150 nM and 150 to 1000 nM.
Turning to `C=CC(=O)N1CCC(Oc2cc3c(Nc4cc(-c5cc(OC)c(F)cc5F)ccc4OC)ncnc3cc2OC)CC1` [Example 213, 1-(4-((4-((2′,4′-difluoro-4,5′-dimethoxy-[1,1′-biphenyl]-3-yl)amino)-7-methoxy-quinazolin-6-yl)oxy)piperidin-1-yl)prop-2-en-1-one], the GI50 in experiment [1] and in experiment [2] was ≤ 150 nM each time.
With `C=CC(=O)N1CCC(Oc2cc3c(Nc4cc(-c5ccc(F)cc5F)ccc4OC)ncnc3cc2OCC)CC1` [Example 239, 1-(4-((4-((2′,4′-difluoro-4-methoxy-[1,1′-biphenyl]-3-yl)amino)-7-ethoxyquinazolin-6-yl)oxy)piperidin-1-yl)prop-2-en-1-one], the GI50 in experiment [1] and in experiment [2] was ≤ 150 nM in each case.
Turning to `C=CC(=O)N1CC2(C1)CN(c1cc3c(Nc4cc(-c5ccco5)ccc4OC)ncnc3cc1OC)C2` [Example 326, 1-(6-(4-((5-(furan-2-yl)-2-methoxyphenyl)amino)-7-methoxyquinazolin-6-yl)-2,6-diazaspiro[3.3]heptan-2-yl)prop-2-en-1-one], the GI50 is > 1000 nM in experiment [1] and 150 to 1000 nM in experiment [2].
